In patent publication US4563471A, “4-Oxothiazolidin-2-ylidene-acetamide derivatives as CNS agents” (Warner-Lambert Company, priority 1983, dated 1986):
Where two headings read alike, the source gives them in different places.

Tests used:
male mice (NMRI) [1] = experiment: Electroshock; type: in vivo, mouse
Procedure: (§1) In the case of all substances, there was used in the cramp test as vehicle 0.8% Methocel mucilage. The premedication time amounted to 30 minutes, insofar as nothing else is stated, and the administration took place i.g. in 20 ml/kg body weight.
(§2) Experimental animals were male mice (NMRI) with a body weight of 18 to 24 g., which were kept under controlled conditions. Twenty-four hours (if not stated otherwise) before commencement of the experiment, the feed was withdrawn but, up to the commencement of the experiment, the drinking water was left.
(§3) Per dosage, in each case ten animals were subjected to the test.
3. […] For the transmission of the current impact, electrodes in the form of ear clips were fixed to the ears of the mouse. The period of the shock amounted to 0.3 s., the current strength to 35 mA (voltage self-regulating).

male mice (NMRI) [2] = experiment: Pentetrazole cramp; type: in vivo, mouse; conditions: po, 20 min; for ED50: read-out: ED50 pentetrazole cramp
Procedure: as §1, §2, §3

male mice (NMRI) [3] = experiment: Semicarbazide cramp; type: in vivo, mouse; conditions: po, 1.5 h; for ED50: read-out: ED50 semicarbazide cramp
Procedure: as §1, §2, §3
7. Semicarbazide cramp--Semicarbazide hydrochloride was used as cramp agent in a dosage of 1000 mg/kg s.c. The observation time amounted in each case to 90 minutes p.a.

male mice (NMRI) [4] = experiment: Picrotoxin cramp; type: in vivo, mouse; conditions: for ED50: Mus musculus, po, 20 min, read-out: ED50 picrotoxin cramp; for ED50 picrotoxin cramp: i.g., male mouse, picrotoxin 15 mg/kg s.c., observation 20 min
Procedure: as §1, §2, §3

male mice (NMRI) [5] = experiment: Strychnine cramp; type: in vivo, mouse; conditions: for ED50: Mus musculus, po, 20 min, read-out: ED50 strychnine cramp; for ED50 strychnine cramp: i.g., male mouse, strychnine 1.1 mg/kg s.c., observation 20 min
Procedure: as §1, §2, §3
2. Strychnine cramp--As convulsive, there was used strychnine nitric cryst in a dosage of 1.1 mg/kg s.c., whereby the observation time amount to 20 minutes p.a.

male mice (NMRI) [6] = experiment: 3-Mercaptopropionic acid cramp (3-MPA); type: in vivo, mouse; conditions: po, 0.5 h, read-out: ED50 3-MPA cramp
Procedure: as §1, §2, §3
8. 3-Mercaptopropionic acid--3-Mercaptopropionic acid was diluted with physiological NaCl solution, adjusted with 6 mol/l NaOH to PH 7 and brought with NaCl solution to the end volume (10 ml/kg). The observation time amounted to 30 minutes.

male mice (NMRI) [7] = experiment: Isoniazide cramp; type: in vivo, mouse; conditions: po, 1.5 h, read-out: ED50 isoniazide cramp
Procedure: as §1, §2, §3

male mice (NMRI) [8] = experiment: Bicuculline cramp; type: in vivo; conditions: po, 20 min; i.g., male mouse; bicuculline 3.0 mg/kg s.c.; observation 20 min
Procedure: as §1, §2, §3
(§4) As positive standard, there were used phenytoin, valproate, GABA and baclofen.
6. Bicuculline cramp--Cramp agent was bicuculline purum. The dosage amounted to 3.0 mg/kg s.c. The observation time amount to 20 minutes.

DBA/2j mice = experiment: Audiogenic cramps; type: in vivo, mouse; conditions: po, 1 min, read-out: ED50 audiogenic cramp
Procedure: as §1
(§5) In the case of the audiogenic cramps, DBA/2j mice of male sex were used in a weight of 5-10 g which, on the day before the experiment, were removed and not fasted.
as §3
9. […] The observation time amount to one minute.

in vivo = conditions: mouse, po
Procedure: The determination of the acute toxicity was carried out on male mice (NMRI) with a body weight of 18-23 g. All experimental animals were fasted for 20 hours before commencement of the experiment. Water was available ad libitum. To each dosage group there belonged four animals. The dosage sequence was logarithmic. The test substances were administered intragastrally as suspension in 0.88% Methocel. The volume of administration amounted to 20 ml/kg.

mice = experiment: Comparative investigations of the anticonvulsive action in cramp models 1-9 (overall); type: in vivo; conditions: all cramp models, i.g., male mouse
Procedure: as §1, §2, §5, §3, §4

[9] = po, 5 min, i.g., male mouse, 35 mA, 0.3 s, observation 5 min, read-out: ED50 electroshock
[10] = i.g., male mouse, pentetrazole 140 mg/kg s.c., observation 20 min
[11] = i.g., male mouse, semicarbazide hydrochloride 1000 mg/kg s.c., observation 90 min
[12] = i.g., male mouse, 3-mercaptopropionic acid, observation 30 min
[13] = i.g., male mouse, isoniazide 250 mg/kg s.c., observation 90 min
[14] = i.g., male DBA/2j mouse, 10.9 KHz sound of 110 dBA, 30 s, observation 1 min

Compound | ED50 (male mice (NMRI) [1]; [9]) [mg/kg] | ED50 (male mice (NMRI) [2]; [10]) [mg/kg] | ED50 (male mice (NMRI) [3]; [11]) [mg/kg] | ED50 (male mice (NMRI) [4]) [mg/kg] | ED50 (male mice (NMRI) [5]) [mg/kg] | ED50 (male mice (NMRI) [6]; [12]) [mg/kg] | ED50 (male mice (NMRI) [7]; [13]) [mg/kg] | ED50 (male mice (NMRI) [8]) [mg/kg] | ED50 (DBA/2j mice; [14]) [mg/kg] | LD50 at 168 h (in vivo) [mg/kg] | selectivity ratio (in vivo) | ED50 strychnine cramp (male mice (NMRI) [5]) | also measured
Cc1cccc(C)c1NC(=O)/C=C1\SCC(=O)N1C [2 (a), (Z)-(3-Methyl-4-oxothiazolidin-2-ylidene)-N-(2,6-dimethylphenyl)-acetamide] | 13.6 | 19.9 | 14.1 | 11.3 | 14.9 | 8.7 | 5.32 | 2.68 | 2.9 | 1980 | 99.8 to 739 | – | –
Cc1cccc(Cl)c1NC(=O)/C=C1\SCC(=O)N1C [2 (i), (Z)-(3-methyl-4-oxothiazolidin-2-ylidene)-N-(2-chloro-6-methylphenyl)-acetamide] | 6.47 | 1.9 | 1.59 | 2.34 | 5.09 | 1.29 | 1.24 | 0.9 | 3 | > 1600 | 243 to 1780 | – | –
CN1C(=O)CS/C1=C\C(=O)Nc1c(Cl)cccc1Cl [2 (j), (Z)-(3-methyl-4-oxothiazolidin-2-ylidene)-N-(2,6-dichlorophenyl)-acetamide] | 4.03 | 1.8 | 3.41 | 1.52 | 5.68 | 1.73 | 5 | 0.8 | 2 | 1600 | 282 to 2000 | – | –
NCCCC(=O)O [GABA] | – | 500 | 60 | – | – | – | – | – | – | – | – | inactive | ED50 electroshock (male mice (NMRI) [1]; i.g., male mouse, 35 mA, 0.3 s, observation 5 min): inactive; ED50 picrotoxin cramp (male mice (NMRI) [4]): inactive
NCC(CC(=O)O)c1ccc(Cl)cc1 (centres unmarked) [baclofen] | – | – | – | 30 | 8.5 | – | – | 20 | – | 200 | 2 to 100 | – | ED50 (male mice (NMRI) [1]; Mus musculus, po, 5 min, read-out: ED50 electroshock): 20 mg/kg; ED50 (male mice (NMRI) [2]; Mus musculus): 100 mg/kg; ED50 (male mice (NMRI) [3]; Mus musculus): 4 mg/kg; ED50 (male mice (NMRI) [6]; Mus musculus): 20 mg/kg; ED50 (male mice (NMRI) [7]; Mus musculus): 2 mg/kg; ED50 (DBA/2j mice; Mus musculus): 5 mg/kg; Side effects (mice): Side effects in all models
O=C1NC(=O)C(c2ccccc2)(c2ccccc2)N1 [phenytoin] | – | – | – | 200 | – | – | 38 | 12.5 | 2.3 | – | – | inactive | ED50 (male mice (NMRI) [1]; Mus musculus, iv, 5 min, read-out: ED50 electroshock (i.v.)): 12.5 mg/kg; ED100 (male mice (NMRI) [1]; po, 5 min, ED 100, i.g., male mouse): 50 mg/kg; ED100 (male mice (NMRI) [2]; ED 100, i.g., male mouse): 50 mg/kg; ED90 (male mice (NMRI) [3]; ED 90, i.g., male mouse): 50 mg/kg
CCCC(CCC)C(=O)O [valproate] | – | – | – | – | – | – | – | – | – | 2000 | 8 to 14.8 | inactive | ED40 (male mice (NMRI) [1]; Mus musculus, po, 5 min, read-out: ED 40 electroshock): 200 mg/kg; ED50 (male mice (NMRI) [2]; Mus musculus): ~250 mg/kg; ED50 (male mice (NMRI) [3]; Mus musculus): 100 mg/kg; ED50 picrotoxin cramp (male mice (NMRI) [4]): inactive; ED50 (male mice (NMRI) [6]; Mus musculus): 154 mg/kg; ED50 (male mice (NMRI) [7]; Mus musculus): 135 mg/kg
